How the values were obtained:
[1] = system: ocular cataract; experiment: Treatment of a patient diagnosed with ocular cataract, one eye treated, other eye untreated; type: in vivo, human
Excerpt: A patient is diagnosed with ocular cataract. A composition comprising the calcium channel blocker nifedipine is directly applied to the vitreous surface of one eye while the other eye is left untreated. […] A patient is diagnosed with ocular cataract. A composition comprising the ACE inhibitor enalapril is directly applied to the vitreous surface of one eye while the other eye is left untreated. […] A patient is diagnosed with ocular cataract. A composition comprising the angiotensin receptor blocker losartan is directly applied to the vitreous surface of one eye while the other eye is left untreated. […] A patient is diagnosed with ocular cataract. A composition comprising the calcium channel blocker nifedipine is applied to the eye by intravitreal or intraocular injection while the other eye is left untreated. […] A patient is diagnosed with ocular cataract. A composition comprising the ACE inhibitor enalapril is applied to the eye by intravitreal or intraocular injection while the other eye is left untreated. […] A patient is diagnosed with ocular cataract. A composition comprising the angiotensin receptor blocker losartan is applied to the eye by intravitreal or intraocular injection while the other eye is left untreated.

[2] = system: ocular cataract; experiment: Prevention of recurrence of ocular cataract in a successfully treated patient, one eye treated, other eye untreated; type: in vivo, human; conditions: untreated eye shows recurrence
Excerpt: A composition comprising the calcium channel blocker nifedipine is directly applied to the vitreous surface of one eye while the other eye is left untreated. […] A composition comprising the ACE inhibitor enalapril is directly applied to the vitreous surface of one eye while the other eye is left untreated. […] A composition comprising the angiotensin receptor blocker losartan is directly applied to the vitreous surface of one eye while the other eye is left untreated. […] A composition comprising the calcium channel blocker nifedipine is applied to the eye by intravitreal or intraocular injection while the other eye is left untreated. […] A composition comprising the ACE inhibitor enalapril is applied to the eye by intravitreal or intraocular injection while the other eye is left untreated. […] A composition comprising the angiotensin receptor blocker losartan is applied to the eye by intravitreal or intraocular injection while the other eye is left untreated.

[3] = system: cataract opacities; conditions: 3119 participants aged 55 to 80; after 10 years of supplementation; cited from earlier work
[4] = composition applied by intravitreal or intraocular injection
[5] = composition directly applied to the vitreous surface of one eye

In the case of `CCOC(=O)[C@H](CCc1ccccc1)N[C@@H](C)C(=O)N1CCC[C@H]1C(=O)O` [enalapril], the “symptoms of ocular cataract in treated eye versus untreated eye” value [1, 4] is reported as “reduced symptoms of ocular cataract”, the “symptoms of ocular cataract in treated eye versus untreated eye” value [1, 5] is reported as “reduced symptoms of ocular cataract” and the “development (recurrence) of ocular cataract in treated eye” value (shortened to “development (recurrence)”) [2, 4] is reported as “not develop ocular cataract”. The “development (recurrence)” value [2, 5] was “not develop ocular cataract”.

For `CCCCc1nc(Cl)c(CO)n1Cc1ccc(-c2ccccc2-c2nn[nH]n2)cc1` [losartan], the “symptoms of ocular cataract in treated eye versus untreated eye” value [1, 4] was “reduced symptoms of ocular cataract”, the “symptoms of ocular cataract in treated eye versus untreated eye” value [1, 5] was “reduced symptoms of ocular cataract” and the “development (recurrence)” value [2, 4] was “not develop ocular cataract”. The “development (recurrence)” value [2, 5] was “not develop ocular cataract”.

For `CC1=C[C@H](O)CC(C)(C)[C@H]1/C=C/C(C)=C/C=C/C(C)=C/C=C/C=C(C)/C=C/C=C(C)/C=C/C1=C(C)C[C@@H](O)CC1(C)C` [lutein], the “nuclear cataract score opacities” value [3] is listed as “No reduction”.

For `CC1=C(/C=C/C(C)=C/C=C/C(C)=C/C=C/C=C(C)/C=C/C=C(C)/C=C/C2=C(C)C[C@@H](O)CC2(C)C)C(C)(C)C[C@H](O)C1` [zeaxanthin], the “nuclear cataract score opacities” value [3] is listed as “No reduction”.
